The results in this text go back to PubChem BioAssay (NCI).

Some test systems named below: HS 578T breast; CCRF-CEM leukemia; MALME-3M melanoma; HL-60(TB) leukemia; LOX IMVI melanoma; U251 CNS; A498 renal; SK-MEL-5 melanoma; HCC-2998 colon; SN12C renal.
Assay in all cases: inhibition of tumour cell growth, NCI panel, 48 h

“And” between values parts separate entries of the source, which are not always exact repeats. Equal entries are not always repeated.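 Cultured in 96-well plates, cells were exposed to test compound for 48 hours across five concentrations. GI50 is the concentration that inhibits growth by half. TGI is the concentration that stops growth completely.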

For the molecule `O=C(Nc1ccc(Br)cc1)Nc1nn(C(=O)Nc2ccc(Br)cc2)c2ccccc12`, the GI50 in the test with HS 578T breast was 13.7 µM; with CCRF-CEM leukemia it was 7.08 µM; in the test with MALME-3M melanoma, over 44.3 µM; in the test with HL-60(TB) leukemia, 12 µM; with LOX IMVI melanoma, 64.4 µM; in the test with U251 CNS, 13.4 µM. The GI50 was 31.4 µM in the test with A498 renal, over 100 µM in the test on SK-MEL-5 melanoma, over 100 µM with HCC-2998 colon and 43.9 µM in the test on SN12C renal. Moreover, the TGI was 55.8 µM in the test with HS 578T breast; over 22.8 µM in the test with CCRF-CEM leukemia; over 85.3 µM in the test on MALME-3M melanoma; over 32.2 µM in the test with HL-60(TB) leukemia; over 100 µM with LOX IMVI melanoma; 43.6 µM in the test with U251 CNS. Also, the TGI in the test on A498 renal was over 81 µM; with SK-MEL-5 melanoma, over 100 µM; with HCC-2998 colon, over 100 µM; in the test on SN12C renal it was over 100 µM.

Regarding `C/C(=C(/c1ccc(O)cc1)c1ccc(Cl)cc1)c1ccccc1`, the GI50 was 0.6 µM in the test with HS 578T breast; 0.764 µM in the test with CCRF-CEM leukemia; 0.459 µM with MALME-3M melanoma; 0.646 µM in the test with HL-60(TB) leukemia; 0.432 µM in the test with LOX IMVI melanoma; 0.537 µM with U251 CNS. In addition, the GI50 in the test with A498 renal was 1.54 µM; in the test with SK-MEL-5 melanoma, 0.454 µM; in the test with HCC-2998 colon it was 0.612 µM; with SN12C renal, 0.466 µM. For the same molecule, the TGI is 1.67 µM with HS 578T breast; 2.87 µM with CCRF-CEM leukemia; 1 µM with MALME-3M melanoma; 1.71 µM in the test with HL-60(TB) leukemia; 0.788 µM with LOX IMVI melanoma; 1.18 µM with U251 CNS. Also, the TGI in the test with A498 renal was 5.06 µM; with SK-MEL-5 melanoma it was 0.849 µM; with HCC-2998 colon, 1.51 µM; in the test with SN12C renal, 0.977 µM.

Regarding `CCCCCCNC(=O)Oc1ccc(/C(=C(/C)Cc2ccc(OC)cc2)c2ccc(OCCN(C)C)cc2)cc1`, the GI50 in the test with HS 578T breast is 5.87 µM; in the test on CCRF-CEM leukemia it was 1.35 µM; in the test on MALME-3M melanoma, 4.49 µM; with HL-60(TB) leukemia, 4.82 µM; in the test on LOX IMVI melanoma it was 4.39 µM; with U251 CNS, 3.61 µM. For the same molecule, the GI50 was 5.34 µM in the test with A498 renal, 5.46 µM in the test with SK-MEL-5 melanoma, 3.82 µM with HCC-2998 colon and 4.84 µM with SN12C renal. Further, the TGI with HS 578T breast worked out at 12.3 µM; in the test with CCRF-CEM leukemia, 5.37 µM; in the test on MALME-3M melanoma, 9.64 µM; in the test with HL-60(TB) leukemia, 10.3 µM; in the test on LOX IMVI melanoma, 8.8 µM; in the test with U251 CNS it was 7.9 µM. The TGI with A498 renal is 9.92 µM; in the test with SK-MEL-5 melanoma, 10.2 µM; in the test with HCC-2998 colon it was 8.43 µM; with SN12C renal, 9.44 µM.

On to `Oc1c(Cl)cc(Cl)cc1Sc1cc(Cl)cc(Cl)c1O`, for which the GI50 is 2.47 µM and 2.32 µM with HS 578T breast; 4.32 µM and 2.83 µM in the test on CCRF-CEM leukemia; 3.32 µM and 2.51 µM in the test on MALME-3M melanoma; 2.88 µM and 2.72 µM in the test on HL-60(TB) leukemia; 2.93 µM and 3 µM with LOX IMVI melanoma; 3.01 µM and 2.74 µM with U251 CNS. Further, the GI50 in the test on A498 renal was 1.81 µM and 1.87 µM; in the test with SK-MEL-5 melanoma it was 1.84 µM and 1.74 µM; in the test with HCC-2998 colon, 3.7 µM; in the test with SN12C renal it was 3.13 µM and 3.14 µM. Moreover, the TGI was 9.48 µM and 8.31 µM with HS 578T breast; 23.4 µM and 25 µM in the test with CCRF-CEM leukemia; 13.7 µM and 6.83 µM in the test with MALME-3M melanoma; 6.5 µM and 7.5 µM with HL-60(TB) leukemia; 11.2 µM and 10.8 µM with LOX IMVI melanoma; 11.2 µM and 10.5 µM in the test on U251 CNS. Further, the TGI is 5.52 µM and 5.19 µM with A498 renal; 4.04 µM and 4.03 µM in the test with SK-MEL-5 melanoma; 14.7 µM with HCC-2998 colon; 13 µM and 11.4 µM in the test with SN12C renal.

`C/C(=N\NC(=S)N1CCN(c2ccccn2)CC1)c1nccs1`: the TGI was 38.3 µM in the test with HS 578T breast; 0.256 µM with CCRF-CEM leukemia; 18.5 µM in the test with MALME-3M melanoma; 0.0419 µM and 0.0526 µM with HL-60(TB) leukemia; 2.42 µM in the test on LOX IMVI melanoma; 9.8 µM in the test on U251 CNS. Further, the TGI with A498 renal was 17.4 µM; in the test on SK-MEL-5 melanoma, 6.3 µM; in the test on HCC-2998 colon, 14.9 µM; in the test on SN12C renal it was 15.9 µM. Besides, the results for the GI50 with CCRF-CEM leukemia, in the test with HL-60(TB) leukemia and with LOX IMVI melanoma were 0.00596 µM, 0.00712 µM and 0.0952 µM, respectively.

On to `CC(=O)c1cc(-c2ccccc2N)n(-c2ccc3c(c2)OCO3)c1C`, for which the GI50 with HS 578T breast is 0.303 µM; in the test with CCRF-CEM leukemia, 0.336 µM; in the test on MALME-3M melanoma it was 2.88 µM; in the test with HL-60(TB) leukemia it was 0.217 µM; with LOX IMVI melanoma it was 0.297 µM; in the test on U251 CNS it was 0.277 µM. The GI50 was 0.195 µM in the test on A498 renal, 0.196 µM with SK-MEL-5 melanoma, 0.304 µM with HCC-2998 colon and 0.135 µM in the test on SN12C renal. The TGI in the test with HS 578T breast was over 85.4 µM; in the test on CCRF-CEM leukemia, over 100 µM; with MALME-3M melanoma, over 83.3 µM; with HL-60(TB) leukemia, 0.592 µM; in the test with LOX IMVI melanoma, over 100 µM; in the test with U251 CNS, over 100 µM. The TGI in the test on A498 renal is 0.808 µM; in the test with SK-MEL-5 melanoma, 1.59 µM; in the test on HCC-2998 colon, 16.3 µM; in the test with SN12C renal, over 100 µM.

For the molecule `CNCCNc1nc2ccccc2c2c(=O)c3cc(OC)ccc3sc12`, the GI50 was 1.84 µM in the test with HS 578T breast; 1.76 µM in the test with CCRF-CEM leukemia; 1.82 µM with MALME-3M melanoma; 1.9 µM with HL-60(TB) leukemia; 1.51 µM in the test with LOX IMVI melanoma; 1.5 µM in the test with U251 CNS. Further, the GI50 in the test with A498 renal was 2.12 µM; in the test with SK-MEL-5 melanoma, 1.71 µM; with HCC-2998 colon, 1.47 µM; in the test on SN12C renal, 1.5 µM. For the same molecule, the TGI was 4.33 µM in the test on HS 578T breast; 3.46 µM in the test on CCRF-CEM leukemia; 3.31 µM with MALME-3M melanoma; 3.6 µM with HL-60(TB) leukemia; 2.88 µM with LOX IMVI melanoma; 2.92 µM with U251 CNS. Further, the TGI in the test with A498 renal was 6.8 µM; with SK-MEL-5 melanoma, 3.09 µM; in the test on HCC-2998 colon it was 2.9 µM; in the test with SN12C renal, 2.96 µM.
